Laboratory results: patent publication US11555175B2, “Cell culture methods and media comprising N-acetylcysteine” (Medimmune, LLC, priority 2014, dated 2023)

Tests used:
Type in all cases: cell-based
[1] = system: NS0 Cell Line 1 (expressing an anti-IL-9 antibody); test: Cell doubling time of NS0 Cell Line 1 during cell expansion with NAC-supplemented medium
Description: (§1) To investigate the role of N-Acetylcysteine on thaw recovery, cell viability, cell growth and cell doubling time on subsequent passaging, the following methods were used. Three different NS0 cell lines cultured in one to three different Animal Protein Free (“APF”) media were investigated to study the effect of N-acetylcysteine (NAC) on cell growth at vial thaw and during routine cell expansion. One of the cell lines was a NS0 null host cell that had not been transformed to express a recombinant protein (NS0 Null Cell Line). The other two NS0 cell lines were engineered to express a therapeutic recombinant protein: NS0 Cell Line 1 (expressing an anti-IL-9 antibody) and NS0 Cell Line 2 (expressing BAK502G9, an anti-IL-13 antibody). NS0 Cell Line 1 was thawed and expanded in two different APF media (APF Medium 1 or APF Medium 2) supplemented with various concentrations of NAC ranging from 1.5 mM to 2.5 mM. NS0 Cell Line 2 was thawed and expanded in three different APF media (APF Medium 1, APF Medium 2 or a commercially available NS0 cell culture media (CD Hybridoma+cholesterol from Invitrogen/Gibco)) supplemented with NAC ranging from 0.5 mM to 2.5 mM, while the untransformed host cell line (NS0 Null Cell Line) was thawed in APF medium 2 supplemented with NAC ranging from 0.5 mM to 1.5 mM. NAC was obtained from Sigma and was either added to the medium directly or dissolved in water at 100 mM concentration before adding to the media at the appropriate concentration. All three media (APF Medium 1, APF Medium 2, and CD Hybridoma+cholesterol from Invitrogen/Gibco) supported growth of NS0 cells, as illustrated in FIGS. 1-12. APF Medium 1 and APF Medium 2 contain standard cell culture components including: amino acids, vitamins, lipids, sugar, small peptides, pH buffer, trace metals, inorganic salts, nucleotides, nucleotide precursors, surfactants, reducing agents, cholesterol, lipids and antioxidants.
(§2) Viable cell densities during the first 3 to 4 days (i.e. exponential growth phase) at each passage were used to calculate population doubling times during both the first few days after the vial thaw while the cells were recovering from the thaw and during subsequent cell passages when the cells have fully recovered and reached a consistent doubling time from passage to passage.
NS0 cells (i.e. NS0 Cell Line 1) expressing an anti-IL-9 monoclonal antibody were cultured in animal-protein free (APF) medium (i.e. APF media 1 or APF media 2). The cells used in the vial thaw studies described in Example 1 were split into the same media (APF media 1 or APF media 2 supplemented with various concentrations of N-acetylcysteine) and allowed to recover in subsequent passages until a consistent doubling time from passage to passage was achieved. Viable cell density during exponential growth phase after recovery was used to calculate average cell doubling time as described in Example 1.

[2] = system: NS0 Cell Line 2 (expressing BAK502G9, an anti-IL-13 antibody); test: Cell doubling time of NS0 Cell Line 2 at vial thaw with NAC-supplemented medium
Description: as §1
(§3) Prior to vial thaw, media were temperature and pH equilibrated for a minimum of 1 hour in a 6% CO2 incubator at 37° C. with agitation at 120 rpm on a shaker. Vials were thawed using a 37° C. water bath and the entire contents were transferred equilibrated media. A cell count using Beckman Vi-Cell (an image-based cell viability analyzer) was obtained to measure the viable cell density and viability.
as §2
NS0 cells (i.e. NS0 Cell Line 2) expressing a monoclonal antibody (i.e. BAK502G9, an anti-IL-13 antibody) were in a frozen stock. Frozen NS0 Cell Line 2 cells were thawed in animal-protein free (APF) medium (i.e. APF media 1, APF media 2 or CD Hybridoma medium (Gibco) supplemented with cholesterol (1× Invitrogen Cholesterol Lipid Concentrate)) supplemented with various concentrations of N-acetylcysteine (NAC) and viable cell density during exponential growth phase was used to calculate average cell doubling time as described in Example 1.

NS0 Null Cell Line [3] = test: Cell doubling time of NS0 Null Cell Line during cell expansion with NAC-supplemented medium; conditions: for Average Doubling Time: APF Medium 2, during expansion, 0.0 mM control 31.9
Description: as §1, §2
NS0 cells (i.e. NS0 Null Cell Line) not transfected with a heterologous protein were cultured in animal-protein free (APF) medium (i.e. APF media 2). The cells used in the vial thaw studies described in Example 3 were split into the same media (APF media 2 supplemented with various concentrations of N-acetylcysteine) and allowed to recover in subsequent passages until a consistent doubling time from passage to passage was achieved. Viable cell density during exponential growth phase after recovery was used to calculate average cell doubling time as described in Example 1.

NS0 Null Cell Line [4] = test: Cell doubling time of NS0 Null Cell Line at vial thaw with NAC-supplemented medium; conditions: for cell doubling time at vial thaw: control medium 67.8 hours
Description: as §1, §3, §2
NS0 cells (i.e. NS0 Null Cell Line) not transfected with a heterologous protein were in a frozen stock. Frozen NS0 Null Cell Line cells were thawed in animal-protein free (APF) medium (i.e. APF media 2) supplemented with various concentrations of N-acetylcysteine (NAC) and viable cell density during exponential growth phase was used to calculate average cell doubling time as described in Example 1.

[5] = system: NS0 Cell Line 2 (expressing BAK502G9, an anti-IL-13 antibody); test: Cell doubling time of NS0 Cell Line 2 during cell expansion with NAC-supplemented medium
Description: as §1, §2
NS0 cells (i.e. NS0 Cell Line 2) expressing a monoclonal antibody (i.e. BAK502G9, an anti-IL-13 antibody) were cultured in animal-protein free (APF) medium (i.e. APF media 1, APF media 2 or CD Hybridoma medium (Gibco) supplemented with cholesterol (1× Invitrogen Cholesterol Lipid Concentrate)). The cells used in the vial thaw studies described in Example 2 were split into the same media (APF media 1, APF media 2 or CD Hybridoma medium+cholesterol) supplemented with various concentrations of N-acetylcysteine and allowed to recover in subsequent passages until a consistent doubling time from passage to passage was achieved. Viable cell density during exponential growth phase after recovery was used to calculate average cell doubling time as described in Example 1.

[6] = system: NS0 Cell Line 1 (expressing an anti-IL-9 antibody); test: Cell doubling time of NS0 Cell Line 1 at vial thaw with NAC-supplemented medium; conditions: for average cell doubling time at vial thaw: control medium 57.6 hours; for cell doubling time at vial thaw: control medium 109.8 hours
Description: as §1, §3, §2
NS0 cells (i.e. NS0 Cell Line 1) expressing an anti-IL-9 monoclonal antibody were in a frozen stock. Frozen NS0 Cell Line 1 cells were thawed in animal-protein free (APF) medium (i.e. APF media 1 or APF media 2) supplemented with various concentrations of N-acetylcysteine (NAC) and viable cell density during exponential growth phase was used to calculate average cell doubling time as described above.

[7] = during expansion, about 1.5 mM to about 2.5 mM NAC, APF media 1 and 2
[8] = vial thaw, about 0.5 mM to about 2.5 mM NAC, three media, vs control medium
[9] = vial thaw, 0.5 mM to 1.5 mM NAC, APF medium 2
[10] = during expansion, about 0.5 mM to about 2.5 mM NAC, three media
[11] = vial thaw, about 1.5 mM to about 2.5 mM NAC, APF media 1 and 2, vs control medium

CC(=O)N[C@@H](CS)C(=O)O [NAC, (2R) -2-acetamido-3-sulfanylpropanoic acid]
Average Doubling Time ([1]; APF Medium 1, during expansion, 1.5 mM NAC, 0.0 mM control 47.0): 42.3 h
Average Doubling Time ([1]; APF Medium 1, during expansion, 2.0 mM NAC, 0.0 mM control 47.0): 46.1 h
Average Doubling Time ([1]; APF Medium 1, during expansion, 2.5 mM NAC, 0.0 mM control 47.0): 63.6 h
Average Doubling Time ([1]; APF Medium 2, during expansion, 1.5 mM NAC, 0.0 mM control 44.3): 34.8 h
Average Doubling Time ([1]; APF Medium 2, during expansion, 2.0 mM NAC, 0.0 mM control 44.3): 34.6 h
Average Doubling Time ([1]; APF Medium 2, during expansion, 2.5 mM NAC, 0.0 mM control 44.3): 34.8 h
cell growth [1, 7]: increases
cell viability [1, 7]: increases
average cell doubling time at vial thaw ([2]; APF media 1, 0.5 mM NAC, control medium 44.6 hours): 39.6 h
average cell doubling time at vial thaw ([2]; APF media 1, 1.0 mM NAC, control medium 44.6 hours): 41.6 h
average cell doubling time at vial thaw ([2]; APF media 1, 2.5 mM NAC, control medium 44.6 hours): 37.5 h
average cell doubling time at vial thaw ([2]; APF media 2, 0.5 mM NAC, control medium 77.0 hours): 57.7 h
average cell doubling time at vial thaw ([2]; APF media 2, 1.0 mM NAC, control medium 77.0 hours): 37.0 h
average cell doubling time at vial thaw ([2]; APF media 2, 2.0 mM NAC, control medium 77.0 hours): 39.7 h
average cell doubling time at vial thaw ([2]; CD Hybridoma medium (Gibco) + 1x Cholesterol Lipid Concentrate, 0.5 mM NAC, control medium 35.5 hours): 34.7 h
average cell doubling time at vial thaw ([2]; CD Hybridoma medium (Gibco) + 1x Cholesterol Lipid Concentrate, 1.0 mM NAC, control medium 35.5 hours): 30.6 h
average cell doubling time at vial thaw ([2]; CD Hybridoma medium (Gibco) + 1x Cholesterol Lipid Concentrate, 2.0 mM NAC, control medium 35.5 hours): 30.9 h
cell growth [2, 8]: increases
cell viability [2, 8]: increases
Average Doubling Time (NS0 Null Cell Line [3]; 0.5 mM NAC): 26.4 h
Average Doubling Time (NS0 Null Cell Line [3]; 1.0 mM NAC): 26.4 h
Average Doubling Time (NS0 Null Cell Line [3]; 1.5 mM NAC): 26.2 h
cell growth (NS0 Null Cell Line [3]; during expansion, 0.5 mM to 1.5 mM NAC, APF medium 2): increased
cell viability (NS0 Null Cell Line [3]; during expansion, about 0.5 mM to about 2.0 mM NAC, statement covers three NS0 cell lines in three media): increased
cell doubling time at vial thaw (NS0 Null Cell Line [4]; APF media 2, 0.5 mM NAC): 36.8 h
cell doubling time at vial thaw (NS0 Null Cell Line [4]; APF media 2, 1.0 mM NAC): 38.4 h
cell doubling time at vial thaw (NS0 Null Cell Line [4]; APF media 2, 1.5 mM NAC): 57.9 h
cell growth (NS0 Null Cell Line [4]; [9]): increased
cell viability (NS0 Null Cell Line [4]; [9]): improved
Average Doubling Time ([5]; APF Medium 1, during expansion, 0.5 mM NAC, 0.0 mM control 41.7): 35.4 h
Average Doubling Time ([5]; APF Medium 1, during expansion, 1.0 mM NAC, 0.0 mM control 41.7): 31.2 h
Average Doubling Time ([5]; APF Medium 1, during expansion, 2.5 mM NAC, 0.0 mM control 41.7): 31.2 h
Average Doubling Time ([5]; APF Medium 2, during expansion, 0.5 mM NAC, 0.0 mM control 38.1): 30.2 h
Average Doubling Time ([5]; APF Medium 2, during expansion, 1.0 mM NAC, 0.0 mM control 38.1): 28.8 h
Average Doubling Time ([5]; APF Medium 2, during expansion, 2.0 mM NAC, 0.0 mM control 38.1): 31.5 h
Average Doubling Time ([5]; Invitrogen CD Hybridoma Medium supplemented with cholesterol, during expansion, 0.5 mM NAC, 0.0 mM control 40.7): 39.7 h
Average Doubling Time ([5]; Invitrogen CD Hybridoma Medium supplemented with cholesterol, during expansion, 1.0 mM NAC, 0.0 mM control 40.7): 37.5 h
Average Doubling Time ([5]; Invitrogen CD Hybridoma Medium supplemented with cholesterol, during expansion, 2.0 mM NAC, 0.0 mM control 40.7): 35.7 h
cell growth [5, 10]: increases
cell viability [5, 10]: increases
average cell doubling time at vial thaw ([6]; APF media 1, 1.5 mM NAC): 55.6 h
average cell doubling time at vial thaw ([6]; APF media 1, 2.0 mM NAC): 48.4 h
average cell doubling time at vial thaw ([6]; APF media 1, 2.5 mM NAC): 53.9 h
cell doubling time at vial thaw ([6]; APF media 2, 1.5 mM NAC): 47.5 h
cell doubling time at vial thaw ([6]; APF media 2, 2.0 mM NAC): 56.9 h
cell doubling time at vial thaw ([6]; APF media 2, 2.5 mM NAC): 47.7 h
cell growth [6, 11]: increases
cell viability [6, 11]: increases
